Assay results taken from patent publication US10905683B2, “Compositions and uses of amidine derivatives” (BIOCRYST PHARMACEUTICALS, INC., priority 2014, dated 2021).
Where “and” joins values, the source holds several entries; their conditions need not be identical. Equal values may be shown once. Read-outs that look alike come from different tables or passages of the source.

Columns and labels:
[1] = Solubility in surfactant solutions; type: physicochemical
Protocol: The solubility of the compound of Example 1 in a range of surfactants was measured. Solubility assays were performed by the sequential addition of the compound of Example 1 to an appropriate organic solvent while stirring vigorously until a precipitate is formed. The resulting suspension is then shaken for 24 hours at room temperature, filtered and the resulting solution was analyzed by appropriate analytical method. Quantitation was performed by comparison of the concentrations of the resulting solution of the compound of Example 1 to a single point calibration curve using a solution of the reference standard.

[2] = Phase 1 Part 1, single ascending oral dose pharmacokinetics and food effect; type: in vivo, human; settings: for Tmax: median
Protocol: A two-part, Phase 1, double-blind, placebo-controlled study of the compound of Example 1 was conducted in healthy subjects. Part 1 of the study assessed the safety, tolerability and the pharmacokinetic (PK) and pharmacodynamic (PD) properties of the compound of Example 1 following a single ascending dose. Subjects were enrolled in five sequential cohorts and received the compound of Example 1 (50 mg, 125 mg, 250 mg, 500 mg or 1000 mg; n=6/cohort) or placebo (n=2/cohort) under fasting conditions. To enable a food-effect assessment on exposure, subjects enrolled in Cohort 4 (500 mg or placebo) subsequently received a second dose of the compound of Example 1 following a high-fat breakfast.
A summary of the pharmacokinetic parameters for fasting, single oral doses of 50 to 1000 mg of the compound of Example 1 (Part 1) is presented in Table 16.
Compound concentrations then declined biphasically and were quantifiable through 9 hours postdose in Cohort 1 (50 mg) and 24 hours postdose in Cohorts 4 and 5 (500 and 1000 mg).

[3] = octanol-PBS pH 7.4 partition coefficient (log D7.4) assay; type: physicochemical; settings: octanol/0.01 M phosphate buffer pH 7.4, 24 hours, LC/MS/MS
Protocol: A 1 μL volume of a 1 mM stock solution of the compound in dimethyl sulfoxide (DMSO) was added to 500 μL 0.01 M phosphate buffer pH 7.4 (saturated with octanol) and 500 μL of octanol (saturated with 0.01 M phosphate buffer). […] Samples were prepared in triplicate.

[4] = 50 mg single oral dose, fasting, GM
[5] = 125 mg single oral dose, fasting, GM
[6] = 250 mg single oral dose, fasting, GM
[7] = 500 mg single oral dose, FASTED, GM
[8] = human, plasma, po, 50 mg, 50 mg single oral dose, fasting, GM
[9] = human, plasma, po, 125 mg, 125 mg single oral dose, fasting, GM
[10] = human, plasma, po, 250 mg, 250 mg single oral dose, fasting, GM
[11] = human, plasma, po, 500 mg, 500 mg single oral dose, FASTED, GM
[12] = human, plasma, po, 500 mg, 500 mg single oral dose, FED (high-fat breakfast), GM
[13] = human, plasma, po, 1000 mg, 1000 mg single oral dose, fasting, GM

## C=Cc1cc(C(=O)Nc2ccc(C(=N)N)cc2)c(-c2ccc(C(=O)NCC3CC3)nc2C(=O)O)cc1OC [Example 1, 3-[2-(4-carbamimidoyl-phenylcarbamoyl)-5-methoxy-4-vinyl-phenyl]-6-(cyclopropylmethyl-carbamoyl)-pyridine-2-carboxylic acid]
[1]; 3-[(3-Chloamidopropyl)-dimethylamino]-1-propanesulfate 1%
  Saturated concentration of Example 1: 0.66 mg/mL
[1]; D-alpha-tocopheryl-polyethylene glycol 1000 succinate 12.3% (in PEG 400)
  Saturated concentration of Example 1: 7.8 mg/mL
[1]; D-alpha-tocopheryl-polyethylene glycol 1000 succinate 20% (in PEG 400)
  Saturated concentration of Example 1: 20.8 mg/mL
[1]; Lecithin 2% (in water)
  Saturated concentration of Example 1: 1.2 mg/mL
[1]; Lecithin 4% (in PEG 400)
  Saturated concentration of Example 1: 3.3 mg/mL
[1]; Lecithin 4% (in water)
  Saturated concentration of Example 1: 2.2 mg/mL
[1]; Lecithin 10% (in PEG 400)
  Saturated concentration of Example 1: 10.6 mg/mL
[1]; Lecithin 10% (in water)
  Saturated concentration of Example 1: 3.1 mg/mL
[1]; Octadecyl amine 1% (in PEG 400)
  Saturated concentration of Example 1: 7.8 mg/mL and 7.1 mg/mL
[1]; Palmitoyl-carnitine chloride 0.10% (in water)
  Saturated concentration of Example 1: 0.3 mg/mL
[1]; dioctyl sodium sulfosuccinate 1% in PEG400
  Saturated concentration of Example 1: 1.72 mg/mL
[1]; sodium lauryl sulphate 1% (in water)
  Saturated concentration of Example 1: 2.4 mg/mL
[1]; sodium lauryl sulphate 2% (in water)
  Saturated concentration of Example 1: 4.7 mg/mL
[1]; sodium lauryl sulphate 5% (in water)
  Saturated concentration of Example 1: 10 mg/mL
[2]; [4]
  DN AUC0-inf: 1.94 ng·h/mL/mg
  DN Cmax: 0.528 ng/mL/mg
[2]; [5]
  DN AUC0-inf: 1.58 ng·h/mL/mg
  DN Cmax: 0.432 ng/mL/mg
[2]; [6]
  DN AUC0-inf: 1.41 ng·h/mL/mg
  DN Cmax: 0.344 ng/mL/mg
[2]; 500 mg single oral dose
  reduction of AUCinf with food v. fasting: 23%
  reduction of AUClast with food v. fasting: 20%
  reduction of geometric mean Cmax after a high-fat breakfast v. fasting: 47%
[2]; [7]
  DN AUC0-inf: 1.60 ng·h/mL/mg
  DN Cmax: 0.311 ng/mL/mg
[2]; 1000 mg single oral dose, fasting, GM
  DN Cmax: 0.193 ng/mL/mg
[2]; 1000 mg single oral dose, fasting, GM, n = 5
  DN AUC0-inf: 0.983 ng·h/mL/mg
[2]; human, plasma, oral, 50 mg, Cohort 1 (50 mg single dose), read-out: terminal half-life (converted)
  half-life: ~3 h
[2]; human, plasma, oral, 500 mg, Cohort 4 (500 mg single dose), read-out: terminal half-life (converted)
  half-life: ~15 h
[2]; human, plasma, oral, single doses, read-out: plasma concentrations at 12 hours postdose
  concentration at 12 h: < 10 ng/mL
[2]; [8]
  AUC(0-inf): 96.8 ng·h/mL
  AUC(0-t): 89.6 ng·h/mL
  Cmax: 26.4 ng/mL
[2]; human, plasma, po, 50 mg, 50 mg single oral dose, fasting, GM, read-out: t1/2 (converted)
  half-life: 2.98 h
[2]; human, plasma, po, 50 mg, 50 mg single oral dose, fasting
  Tmax: 1 h
[2]; [9]
  AUC(0-inf): 197 ng·h/mL
  AUC(0-t): 188 ng·h/mL
  Cmax: 54 ng/mL
[2]; human, plasma, po, 125 mg, 125 mg single oral dose, fasting, GM, read-out: t1/2 (converted)
  half-life: 4.66 h
[2]; human, plasma, po, 125 mg, 125 mg single oral dose, fasting
  Tmax: 2 h
[2]; [10]
  AUC(0-inf): 353 ng·h/mL
  AUC(0-t): 336 ng·h/mL
  Cmax: 85.9 ng/mL
[2]; human, plasma, po, 250 mg, 250 mg single oral dose, fasting, GM, read-out: t1/2 (converted)
  half-life: 6.5 h
[2]; human, plasma, po, 250 mg, 250 mg single oral dose, fasting
  Tmax: 2 h
[2]; [11]
  AUC(0-inf): 802 ng·h/mL
  AUC(0-t): 760 ng·h/mL
  Cmax: 155 ng/mL
[2]; human, plasma, po, 500 mg, 500 mg single oral dose, FASTED, GM, read-out: t1/2 (converted)
  half-life: 15.4 h
[2]; human, plasma, po, 500 mg, 500 mg single oral dose, FASTED
  Tmax: 2 h
[2]; [12]
  AUC(0-t): 586 ng·h/mL
  Cmax: 82.1 ng/mL
[2]; human, plasma, po, 500 mg, 500 mg single oral dose, FED (high-fat breakfast), GM, n = 5
  AUC(0-inf): 642 ng·h/mL
[2]; human, plasma, po, 500 mg, 500 mg single oral dose, FED (high-fat breakfast), GM, n = 5, sampling to 96 hours, read-out: t1/2 (converted)
  half-life: 18.9 h
[2]; human, plasma, po, 500 mg, 500 mg single oral dose, FED (high-fat breakfast)
  Tmax: 2.5 h
[2]; [13]
  AUC(0-t): 981 ng·h/mL
  Cmax: 193 ng/mL
[2]; human, plasma, po, 1000 mg, 1000 mg single oral dose, fasting, GM, n = 5
  AUC(0-inf): 983 ng·h/mL
[2]; human, plasma, po, 1000 mg, 1000 mg single oral dose, fasting, GM, n = 5, sampling to 96 hours, read-out: t1/2 (converted)
  half-life: 12.3 h
[2]; human, plasma, po, 1000 mg, 1000 mg single oral dose, fasting
  Tmax: 2 h
[3]
  logD at 24 h: 1.9
